The target of this assay is T1, Androgen receptor (Rattus norvegicus, UniProt P15207).
T1 sequence (P15207 whole entry): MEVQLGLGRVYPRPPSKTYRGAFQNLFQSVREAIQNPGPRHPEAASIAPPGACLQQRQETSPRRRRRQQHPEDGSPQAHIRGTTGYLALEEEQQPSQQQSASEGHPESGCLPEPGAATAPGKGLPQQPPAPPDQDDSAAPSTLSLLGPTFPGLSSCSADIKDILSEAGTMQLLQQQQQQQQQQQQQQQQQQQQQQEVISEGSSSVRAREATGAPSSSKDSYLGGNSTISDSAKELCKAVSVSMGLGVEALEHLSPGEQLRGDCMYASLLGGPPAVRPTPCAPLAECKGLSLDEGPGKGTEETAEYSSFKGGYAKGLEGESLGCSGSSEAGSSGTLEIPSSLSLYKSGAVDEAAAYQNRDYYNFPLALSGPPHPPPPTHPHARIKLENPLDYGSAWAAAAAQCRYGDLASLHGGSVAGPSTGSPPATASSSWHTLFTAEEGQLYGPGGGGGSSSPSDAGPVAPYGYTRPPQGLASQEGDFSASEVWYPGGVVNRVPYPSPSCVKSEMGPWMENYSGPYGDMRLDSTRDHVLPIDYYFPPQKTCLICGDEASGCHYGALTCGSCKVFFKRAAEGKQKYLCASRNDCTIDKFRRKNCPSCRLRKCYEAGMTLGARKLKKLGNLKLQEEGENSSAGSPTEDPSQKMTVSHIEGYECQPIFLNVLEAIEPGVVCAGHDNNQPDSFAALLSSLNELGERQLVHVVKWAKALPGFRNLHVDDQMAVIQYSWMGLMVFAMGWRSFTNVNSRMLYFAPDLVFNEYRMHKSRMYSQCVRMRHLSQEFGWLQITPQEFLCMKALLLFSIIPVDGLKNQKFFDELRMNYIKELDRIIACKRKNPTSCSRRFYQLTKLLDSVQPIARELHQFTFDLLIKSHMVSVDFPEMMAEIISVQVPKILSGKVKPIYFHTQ
As to the kind of experiment: Antagonist activity at recombinant GST/His-tagged rat androgen receptor amino-terminal domain by fluorescence polarization assay.

Take `CC(C)(c1ccc(OCC(O)CO)cc1)c1ccc(OCC(O)CCl)cc1` (stereo unspecified): the IC50 turned out to be 6 µM.

The term IC50 denotes the concentration that gives 50% inhibition.

Values taken from ChEMBL document CHEMBL4725256, “A critical update on the strategies towards modulators targeting androgen receptors” (Bioorg Med Chem, 2020).
